The results in this text go back to PubChem BioAssay AID248 (DTP/NCI, 2004).

The test system of the assay is L1210 leukemia ip in BDF1 mice, survival T/C. In words: NCI In Vivo Anticancer Drug Screen. Data for tumor model L1210 Leukemia (intraperitoneal) in B6D2F1 (BDF1) mice. Particulars: higher = longer survival. The method, boiled down: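 Tumor cells were implanted, animals were treated, and survival was followed. The result divides the treated measurement by the vehicle-control measurement.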

“And” between values parts separate entries of the source, which are not always exact repeats. Equal values may be shown once. Inconclusive results and toxic doses are left out.

With `N#[N+]c1cnc([O-])[nH]c1=O`, the T/C (endpoint: mean survival time, dose: 0.31 mg/kg/injection, schedule: Q#A X Z (ip), vehicle: methylcellulose (MC)) is 103 % of control; the T/C (endpoint: mean survival time, dose: 0.6 mg/kg/injection, schedule: Q01DX Z (im), vehicle: saline) is 102 % of control; the T/C (endpoint: mean survival time, dose: 0.6 mg/kg/injection, schedule: Q01DX Z (ip), vehicle: saline) is 104 % of control; the T/C (endpoint: mean survival time, dose: 0.62 mg/kg/injection, schedule: Q#A X Z (ip), vehicle: methylcellulose (MC)) was 108 % of control; the T/C (endpoint: mean survival time, dose: 1.0 mg/kg/injection, schedule: Q01DX009 (ip), vehicle: saline) is 119 % of control; the T/C (endpoint: mean survival time, dose: 1.2 mg/kg/injection, schedule: Q01DX Z (ip), vehicle: saline) is 120 % of control. In addition, the T/C reads like this: (endpoint: mean survival time, dose: 1.75 mg/kg/injection, schedule: Q01DX Z (ip), vehicle: carboxymethylcellulose (CMC)) 115 % of control; (endpoint: mean survival time, dose: 2.0 mg/kg/injection, schedule: Q01DX009 (sc), vehicle: carboxymethylcellulose (CMC)) 103 % of control; (endpoint: mean survival time, dose: 2.5 mg/kg/injection, schedule: Q01DX006 (iv), vehicle: saline) 110 % of control; (endpoint: mean survival time, dose: 2.5 mg/kg/injection, schedule: Q01DX010 (ip), vehicle: saline) 107 % of control; (endpoint: mean survival time, dose: 2.5 mg/kg/injection, schedule: Q01DX Z (sc), vehicle: steriod suspending solution) 112 % of control; (endpoint: mean survival time, dose: 3.75 mg/kg/injection, schedule: Q03DX Z (ip), vehicle: methylcellulose (MC)) 123 % of control. Also, the T/C reads like this: (endpoint: mean survival time, dose: 4.0 mg/kg/injection, schedule: Q01DX001 (sc), vehicle: carboxymethylcellulose (CMC)) 100 % of control; (endpoint: mean survival time, dose: 4.0 mg/kg/injection, schedule: Q01DX009 (sc), vehicle: carboxymethylcellulose (CMC)) 105 % of control; (endpoint: mean survival time, dose: 4.0 mg/kg/injection, schedule: Q## X008 (ip), vehicle: carboxymethylcellulose (CMC)) 120 % of control; (endpoint: mean survival time, dose: 4.0 mg/kg/injection, schedule: Q## X016 (ip), vehicle: carboxymethylcellulose (CMC)) 119 % of control; (endpoint: mean survival time, dose: 4.0 mg/kg/injection, schedule: Q## X024 (ip), vehicle: carboxymethylcellulose (CMC)) 118 % of control; (endpoint: mean survival time, dose: 5.0 mg/kg/injection, schedule: Q01DX006 (iv), vehicle: saline) 115 % of control. Also, the T/C reads like this: (endpoint: mean survival time, dose: 5.0 mg/kg/injection, schedule: Q01DX Z (ip), vehicle: saline) 113 % of control and 118 % of control; (endpoint: mean survival time, dose: 5.0 mg/kg/injection, schedule: Q04DX003 (ip), vehicle: Klucel (hydroxypropylcellulose) (HPC)) 124 % of control; (endpoint: mean survival time, dose: 5.0 mg/kg/injection, schedule: Q04DX003 (ip), vehicle: saline) 104 % of control and 123 % of control; (endpoint: mean survival time, dose: 8.0 mg/kg/injection, schedule: Q01DX001 (sc), vehicle: carboxymethylcellulose (CMC)) 103 % of control; (endpoint: mean survival time, dose: 8.0 mg/kg/injection, schedule: Q01DX009 (ip), vehicle: carboxymethylcellulose (CMC)) 165 % of control; (endpoint: mean survival time, dose: 8.0 mg/kg/injection, schedule: Q01DX009 (ip), vehicle: saline) 121 % of control. Further, the T/C is, setting by setting: (endpoint: mean survival time, dose: 8.0 mg/kg/injection, schedule: Q01DX009 (sc), vehicle: carboxymethylcellulose (CMC)) 107 % of control; (endpoint: mean survival time, dose: 8.0 mg/kg/injection, schedule: Q## X016 (ip), vehicle: carboxymethylcellulose (CMC)) 120 % of control; (endpoint: mean survival time, dose: 8.0 mg/kg/injection, schedule: Q## X024 (ip), vehicle: carboxymethylcellulose (CMC)) 120 % of control; (endpoint: mean survival time, dose: 8.75 mg/kg/injection, schedule: Q07DX Z (ip), vehicle: methylcellulose (MC)) 112 % of control; (endpoint: mean survival time, dose: 9.49 mg/kg/injection, schedule: Q01DX Z (oral), vehicle: carboxymethylcellulose (CMC)) 98 % of control; (endpoint: mean survival time, dose: 10.0 mg/kg/injection, schedule: Q01DX005 (ip), vehicle: Klucel (hydroxypropylcellulose) (HPC)) 157 % of control. Also, the T/C reads like this: (endpoint: mean survival time, dose: 10.0 mg/kg/injection, schedule: Q01DX006 (iv), vehicle: saline) 106 % of control and 108 % of control; (endpoint: mean survival time, dose: 10.0 mg/kg/injection, schedule: Q01DX010 (ip), vehicle: saline) 155 % of control; (endpoint: mean survival time, dose: 10.0 mg/kg/injection, schedule: Q01DX Z (im), vehicle: saline) 118 % of control; (endpoint: mean survival time, dose: 10.0 mg/kg/injection, schedule: Q01DX Z (oral), vehicle: saline) 106 % of control; (endpoint: mean survival time, dose: 10.0 mg/kg/injection, schedule: Q04DX003 (ip), vehicle: Klucel (hydroxypropylcellulose) (HPC)) 124 % of control; (endpoint: mean survival time, dose: 10.0 mg/kg/injection, schedule: Q04DX003 (ip), vehicle: saline) 114 % of control. Moreover, the T/C runs as follows: (endpoint: mean survival time, dose: 14.2 mg/kg/injection, schedule: Q01DX Z (oral), vehicle: carboxymethylcellulose (CMC)) 101 % of control; (endpoint: mean survival time, dose: 15.0 mg/kg/injection, schedule: Q01DX001 (ip), vehicle: saline) 122 % of control and 91 % of control; (endpoint: mean survival time, dose: 15.0 mg/kg/injection, schedule: Q03DX Z (ip), vehicle: methylcellulose (MC)) 152 % of control; (endpoint: mean survival time, dose: 16.0 mg/kg/injection, schedule: Q01DX001 (sc), vehicle: carboxymethylcellulose (CMC)) 101 % of control; (endpoint: mean survival time, dose: 16.0 mg/kg/injection, schedule: Q01DX009 (sc), vehicle: carboxymethylcellulose (CMC)) 124 % of control; (endpoint: mean survival time, dose: 16.0 mg/kg/injection, schedule: Q## X024 (ip), vehicle: carboxymethylcellulose (CMC)) 115 % of control. Further, the T/C is, setting by setting: (endpoint: mean survival time, dose: 17.5 mg/kg/injection, schedule: Q07DX Z (ip), vehicle: methylcellulose (MC)) 124 % of control; (endpoint: mean survival time, dose: 20.0 mg/kg/injection, schedule: Q01DX006 (iv), vehicle: saline) 102 % of control and 120 % of control; (endpoint: mean survival time, dose: 20.0 mg/kg/injection, schedule: Q01DX Z (oral), vehicle: saline) 115 % of control; (endpoint: mean survival time, dose: 20.0 mg/kg/injection, schedule: Q04DX003 (ip), vehicle: saline) 116 % of control and 119 % of control; (endpoint: mean survival time, dose: 21.3 mg/kg/injection, schedule: Q01DX Z (oral), vehicle: carboxymethylcellulose (CMC)) 97 % of control; (endpoint: mean survival time, dose: 29.0 mg/kg/injection, schedule: Q01DX001 (ip), vehicle: alkali diluted with saline) 153 % of control. In addition, the T/C runs as follows: (endpoint: mean survival time, dose: 32.0 mg/kg/injection, schedule: Q01DX Z (oral), vehicle: carboxymethylcellulose (CMC)) 104 % of control; (endpoint: mean survival time, dose: 32.0 mg/kg/injection, schedule: Q01DX Z (oral), vehicle: methylcellulose (MC)) 95 % of control; (endpoint: mean survival time, dose: 40.0 mg/kg/injection, schedule: Q01DX006 (iv), vehicle: saline) 113 % of control; (endpoint: mean survival time, dose: 40.0 mg/kg/injection, schedule: Q01DX009 (oral), vehicle: carboxymethylcellulose (CMC)) 104 % of control; (endpoint: mean survival time, dose: 40.0 mg/kg/injection, schedule: Q01DX Z (oral), vehicle: saline) 107 % of control and 116 % of control; (endpoint: mean survival time, dose: 80.0 mg/kg/injection, schedule: Q01DX009 (oral), vehicle: carboxymethylcellulose (CMC)) 109 % of control. Also, the T/C was 106 % of control (endpoint: mean survival time, dose: 80.0 mg/kg/injection, schedule: Q01DX Z (oral), vehicle: saline); 104 % of control (endpoint: mean survival time, dose: 160.0 mg/kg/injection, schedule: Q01DX001 (oral), vehicle: carboxymethylcellulose (CMC)); 102 % of control (endpoint: mean survival time, dose: 240.0 mg/kg/injection, schedule: Q01DX001 (oral), vehicle: carboxymethylcellulose (CMC)); 164 % of control (endpoint: median survival time, dose: 5.0 mg/kg/injection, schedule: Q01DX009 (ip), vehicle: saline); 172 % of control and 200 % of control (endpoint: median survival time, dose: 10.0 mg/kg/injection, schedule: Q01DX009 (ip), vehicle: saline).

For `O=C(CCC(=O)NO)NO`, the T/C reads like this: (endpoint: mean survival time, dose: 100.0 mg/kg/injection, schedule: Q04DX002 (ip), vehicle: saline) 110 % of control; (endpoint: mean survival time, dose: 200.0 mg/kg/injection, schedule: Q04DX002 (ip), vehicle: saline) 103 % of control; (endpoint: mean survival time, dose: 400.0 mg/kg/injection, schedule: Q04DX002 (ip), vehicle: saline) 97 % of control.

Consider `Cc1ccc(NC(=O)N(C)CCC#N)cc1`, for which the T/C (endpoint: mean survival time, dose: 100.0 mg/kg/injection, schedule: Q04DX002 (ip), vehicle: saline with Tween-80) is 97 % of control; the T/C (endpoint: mean survival time, dose: 200.0 mg/kg/injection, schedule: Q04DX002 (ip), vehicle: saline with Tween-80) is 94 % of control; the T/C (endpoint: mean survival time, dose: 400.0 mg/kg/injection, schedule: Q04DX002 (ip), vehicle: saline with Tween-80) is 87 % of control.

As to `C/C=C\C=N\NC(=O)CCCCCCCCCCC`, the T/C runs as follows: (endpoint: mean survival time, dose: 25.0 mg/kg/injection, schedule: Q01DX009 (ip), vehicle: Klucel (hydroxypropylcellulose) (HPC)) 105 % of control; (endpoint: mean survival time, dose: 50.0 mg/kg/injection, schedule: Q01DX009 (ip), vehicle: Klucel (hydroxypropylcellulose) (HPC)) 91 % of control; (endpoint: mean survival time, dose: 100.0 mg/kg/injection, schedule: Q01DX009 (ip), vehicle: Klucel (hydroxypropylcellulose) (HPC)) 100 % of control and 90 % of control.

Regarding `COc1cc(C(=O)NC(CCC(=O)O)C(=O)O)ccc1N(C)Cc1cnc2nc(N)nc(N)c2n1` (stereo not given), the T/C reads like this: (endpoint: mean survival time, dose: 6.25 mg/kg/injection, schedule: Q01DX009 (ip), vehicle: sodium bicarbonate) 154 % of control; (endpoint: mean survival time, dose: 25.0 mg/kg/injection, schedule: Q01DX009 (ip), vehicle: sodium bicarbonate) 178 % of control.
